The text below walks through data of patent US20250213701A1, “MEDICAMENT FOR TREATING HUMAN TUMOR BASED ON ERF3A-TARGETING PROTEOLYSIS MECHANISM” (SUZHOU DEGEN BIO-MEDICAL CO., LTD., priority 2022, published 2025).

Holding throughout (assay type): cell-based, human
One assay deals with VCaP cells. Put plainly: Anti-proliferative toxicity against prostate cancer cell line Vcap (CCK8). To be noted: 3 days; for IC50: Homo sapiens, 72 h, CCK8. The gist of the method:
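VCaP cells (DMEM, 10% FBS) seeded 20000 cells/well, cultured 72 h, then exposed in triplicate to compound at final well concentrations of 0.00001–0.16 μM for 3 days at 37 °C, 5% CO2. Viability by CCK8, 1–4 h at 37 °C, absorbance at 450 nm.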

Another assay concerns 22Rv1 cells. Put plainly: Anti-proliferative toxicity against prostate cancer cell line 22Rv1 (CCK8). Particulars: 3 days; for IC50: Homo sapiens, 72 h, CCK8. In a few lines:
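22Rv1 cells pre-cultured for 48 h, then exposed to compounds at 0.00001-1.0 μM final, in triplicate, for 3 days. Viability read by CCK8 absorbance at 450 nm after 1-4 h at 37 °C.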

Another assay deals with PC-3 cells. Put plainly: Anti-proliferative toxicity against prostate cancer cell line PC-3 (CCK8). To be noted: Homo sapiens, 72 h, 3 days. In a few lines: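 PC-3 cells (4000/well, pre-cultured 24 h) exposed in triplicate to compound at final 0.00001-1.0 μM for 3 days at 37 °C, 5% CO2. Viability read by CCK8, 1-4 h at 37 °C, absorbance at 450 nm.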

For the compound `C[C@]12C=CC(=O)N[C@@H]1CC[C@@H]1[C@@H]2CC[C@]2(C)[C@@H](C(=O)Nc3cccc(OCC4CCN(c5cccc6c5C(=O)N(C5CCC(=O)NC5=O)C6=O)CC4)c3)CC[C@@H]12` (stereo partly drawn) [C42, N-(3-((4-methyl-1-(4-(2-(3-(2,6-dioxopiperidine))-isoindole-1,3-dione))-piperidinyl)oxy)phenyl)-3-oxo-4-aza-5α-androst-1-ene-17β-carboxamide], the IC50 in the assay with VCaP cells, with 22Rv1 cells and in the assay on PC-3 cells was more than 1000 nM in each case.
For the compound `C[C@]12C=CC(=O)N[C@@H]1CC[C@@H]1[C@@H]2CC[C@]2(C)[C@@H](C(=O)Nc3cccc(N4CCC(CN5CCN(c6cccc7c6C(=O)N(C6CCC(=O)NC6=O)C7=O)CC5)CC4)c3)CC[C@@H]12` (stereo partly drawn) [C44, 1-(4-(1-(3-(3-oxo-4-aza-5α-androst-1-ene-17β-carboxamido)phenyl)piperidine))methyl-4-(4-(2-(3-(2,6-dioxopiperidine))-isoindole-1,3-dione))piperazine], the IC50 in the assay with VCaP cells, with 22Rv1 cells and with PC-3 cells was more than 1000 nM each time.
Turning to `C[C@]12C=CC(=O)N[C@@H]1CC[C@@H]1[C@@H]2CC[C@]2(C)[C@@H](C(=O)Nc3cccc(N4CCC(CN5CCN(c6ccc7c(c6)C(=O)N(C6CCC(=O)NC6=O)C7=O)CC5)CC4)c3)CC[C@@H]12` (stereo partly drawn) [C45, 1-(4-(1-(3-(3-oxo-4-aza-5α-androst-1-ene-17β-carboxamido)phenyl)piperidine)methyl)-4-(5-(2-(3-(2,6-dioxopiperidine))-isoindole-1,3-dione))piperazine], the IC50 in the assay with VCaP cells, in the assay on 22Rv1 cells and in the assay on PC-3 cells was more than 1000 nM throughout.
For `C[C@]12C=CC(=O)N[C@@H]1CC[C@@H]1[C@@H]2CC[C@]2(C)[C@@H](C(=O)Nc3cccc(OCCCOc4cccc5c4C(=O)N(C4CCC(=O)NC4=O)C5=O)c3)CC[C@@H]12` (stereo partly drawn) [C46, N-(3-((3-((4-(2-(3-(2,6-dioxopiperidine))-isoindole-1,3-dione))oxy)propyl)oxy)phenyl)-3-oxo-4-aza-5α-androst-1-ene-17β-carboxamide], the IC50 is 0.1 to 10 nM with VCaP cells, 0.1 to 10 nM in the assay with 22Rv1 cells and more than 1000 nM with PC-3 cells.
For `C[C@]12C=CC(=O)N[C@@H]1CC[C@@H]1[C@@H]2CC[C@]2(C)[C@@H](C(=O)Nc3ccc(OCCNc4ccc5c(c4)C(=O)N(C4CCC(=O)NC4=O)C5=O)nc3)CC[C@@H]12` (stereo partly drawn) [C47, N-(5-(2-((2-((5-(2-(3-(2,6-dioxopiperidine))-isoindole-1,3-dione))amino)ethyl)oxy)pyridine))-3-oxo-4-aza-5α-androst-1-ene-17β-carboxamide], the IC50 in the assay with VCaP cells was 10 to 1000 nM; with 22Rv1 cells, 10 to 1000 nM; with PC-3 cells it was more than 1000 nM.
For `C[C@]12C=CC(=O)N[C@@H]1CC[C@@H]1[C@@H]2CC[C@]2(C)[C@@H](C(=O)Nc3cccc(N4CCC(CNc5cccc6c5C(=O)N(C5CCC(=O)NC5=O)C6=O)CC4)c3)CC[C@@H]12` (stereo partly drawn) [C48, N-(3-(4-(((4-(2-(3-(2,6-dioxopiperidine))-isoindole-1,3-dione))amino)methyl)piperidine)phenyl)-3-oxo-4-aza-5α-androst-1-ene-17β-carboxamide], the IC50 in the assay with VCaP cells, with 22Rv1 cells and in the assay on PC-3 cells was more than 1000 nM throughout.
On to `CC(C)(C)C(=O)OCN1C(=O)CCC(N2C(=O)c3cccc(NCCCOc4cccc(NC(=O)[C@H]5CC[C@H]6[C@@H]7CC[C@H]8NC(=O)C=C[C@]8(C)[C@H]7CC[C@]56C)c4)c3C2=O)C1=O` (stereo partly drawn) [C49, N-(3-((3-((4-(2-(3-(1-pivaloyloxymethyl-2,6-dioxopiperidine))-isoindole-1,3-dione))amino)propyl)oxy)phenyl)-3-oxo-4-aza-5α-androst-1-ene-17β-carboxamide], for which the IC50 with VCaP cells is 0.1 to 10 nM; in the assay with 22Rv1 cells it was 0.1 to 10 nM; in the assay on PC-3 cells, more than 1000 nM.
With `C[C@]12C=CC(=O)N[C@@H]1CC[C@@H]1[C@@H]2CC[C@]2(C)[C@@H](C(=O)Nc3cccc(NCCCNc4cccc5c4C(=O)N(C4CCC(=O)NC4=O)C5=O)c3)CC[C@@H]12` (stereo partly drawn) [C50, N-(3-((3-((4-(2-(3-(2,6-dioxopiperidine))-isoindole-1,3-dione))amino)propyl)amino)phenyl)-3-oxo-4-aza-5α-androst-1-ene-17β-carboxamide], the “Anti-proliferative toxicity data in VCaP cells” value in the assay with VCaP cells (0.00005 μM) worked out at 1.2%; in the assay with VCaP cells (0.00010 μM), 22.8%; with VCaP cells (0.00030 μM), 72.3%; in the assay on VCaP cells (0.00100 μM) it was 86.6%; with VCaP cells (0.00300 μM) it was 90.5%; in the assay with VCaP cells (0.00600 μM), 90.7%. For the same compound, the “Anti-proliferative toxicity data in VCaP cells” value was 91.5% in the assay with VCaP cells (0.03200 μM) and 91.7% in the assay with VCaP cells (0.16000 μM). The IC50 in the assay on VCaP cells is 0.1 to 10 nM; in the assay on 22Rv1 cells it was 0.1 to 10 nM; in the assay with PC-3 cells it was 10 to 1000 nM. The “Anti-proliferative toxicity data in 22Rv1 cells” value in the assay on 22Rv1 cells (0.00006 μM) stood at 6.6%; in the assay on 22Rv1 cells (0.00032 μM) it was 45.2%; with 22Rv1 cells (0.00160 μM), 78.4%; with 22Rv1 cells (0.00800 μM), 80.7%; in the assay on 22Rv1 cells (0.04000 μM), 75.0%; with 22Rv1 cells (0.20000 μM), 80.6%. Moreover, the “Anti-proliferative toxicity data in 22Rv1 cells” value in the assay on 22Rv1 cells (1.00000 μM) was found to be 81.5%.
As for `C[C@]12C=CC(=O)N[C@@H]1CC[C@@H]1[C@@H]2CC[C@]2(C)[C@@H](C(=O)Nc3ccc(Cl)c(OCCCNc4cccc5c4C(=O)N(C4CCC(=O)NC4=O)C5=O)c3)CC[C@@H]12` (stereo partly drawn) [C51, N-(3-((3-((4-(2-(3-(2,6-dioxopiperidine))-isoindole-1,3-dione))amino)propyl)oxy)-4-chloro-phenyl)-3-oxo-4-aza-5α-androst-1-ene-17β-carboxamide], the IC50 in the assay with VCaP cells, in the assay with 22Rv1 cells and in the assay with PC-3 cells was more than 1000 nM throughout.
`Cc1ccc(NC(=O)[C@H]2CC[C@H]3[C@@H]4CC[C@H]5NC(=O)C=C[C@]5(C)[C@H]4CC[C@]23C)cc1OCCCNc1cccc2c1C(=O)N(C1CCC(=O)NC1=O)C2=O` (stereo partly drawn) [C52, N-(3-((3-((4-(2-(3-(2,6-dioxopiperidine))-isoindole-1,3-dione))amino)propyl)oxy)-4-methyl-phenyl)-3-oxo-4-aza-5α-androst-1-ene-17β-carboxamide]: the IC50 with VCaP cells, with 22Rv1 cells and in the assay with PC-3 cells was more than 1000 nM each time.
As to `C[C@]12C=CC(=O)N[C@@H]1CC[C@@H]1[C@@H]2CC[C@]2(C)[C@@H](C(=O)Nc3cc(OCCCNc4cccc5c4C(=O)N(C4CCC(=O)NC4=O)C5=O)ccn3)CC[C@@H]12` (stereo partly drawn) [C53, N-(2-(4-((3-((4-(2-(3-(2,6-dioxopiperidine))-isoindole-1,3-dione))amino)propyl)oxy)-pyridine))-3-oxo-4-aza-5α-androst-1-ene-17β-carboxamide], the IC50 in the assay on VCaP cells, in the assay with 22Rv1 cells and in the assay on PC-3 cells was more than 1000 nM throughout.
As to `C[C@]12C=CC(=O)N[C@@H]1CC[C@@H]1[C@@H]2CC[C@]2(C)[C@@H](C(=O)Nc3cccc(NC4CCC(Nc5cccc6c5C(=O)N(C5CCC(=O)NC5=O)C6=O)CC4)c3)CC[C@@H]12` (stereo partly drawn) [C54, N-(3-((4-((4-(2-(3-(2,6-dioxopiperidine))-isoindole-1,3-dione))amino)cyclohexyl)amino)phenyl)-3-oxo-4-aza-5α-androst-1-ene-17β-carboxamide], the IC50 in the assay on VCaP cells, in the assay with 22Rv1 cells and in the assay with PC-3 cells was more than 1000 nM throughout.
As for `C[C@]12C=CC(=O)N[C@@H]1CC[C@@H]1[C@@H]2CC[C@]2(C)[C@@H](C(=O)Nc3cc(Cl)cc(OCCCNc4cccc5c4C(=O)N(C4CCC(=O)NC4=O)C5=O)c3)CC[C@@H]12` (stereo partly drawn) [C55, N-(3-((3-((4-(2-(3-(2,6-dioxopiperidine))-isoindole-1,3-dione))amino)propyl)oxy)-5-chloro-phenyl)-3-oxo-4-aza-5α-androst-1-ene-17β-carboxamide], the IC50 in the assay with VCaP cells is 10 to 1000 nM; in the assay on 22Rv1 cells, 10 to 1000 nM; with PC-3 cells, more than 1000 nM.
As to `C[C@]12C=CC(=O)N[C@@H]1CC[C@@H]1[C@@H]2CC[C@]2(C)[C@@H](C(=O)Nc3cccc(NCCNc4cccc5c4C(=O)N(C4CCC(=O)NC4=O)C5=O)c3)CC[C@@H]12` (stereo partly drawn) [C56, N-(3-((2-((4-(2-(3-(2,6-dioxopiperidine))-isoindole-1,3-dione))amino)ethyl)amino)phenyl)-3-oxo-4-aza-5α-androst-1-ene-17β-carboxamide], the IC50 in the assay with VCaP cells, in the assay with 22Rv1 cells and with PC-3 cells was more than 1000 nM each time.
As to `C[C@]12C=CC(=O)N[C@@H]1CC[C@@H]1[C@@H]2CC[C@]2(C)[C@@H](C(=O)Nc3cccc(OC4CCC(Nc5cccc6c5C(=O)N(C5CCC(=O)NC5=O)C6=O)C4)c3)CC[C@@H]12` (stereo partly drawn) [C57, N-(3-((3-((4-(2-(3-(2,6-dioxopiperidine))-isoindole-1,3-dione))amino)cyclopentyl)oxy)phenyl)-3-oxo-4-aza-5α-androst-1-ene-17β-carboxamide], the IC50 was 10 to 1000 nM with VCaP cells, 10 to 1000 nM in the assay with 22Rv1 cells and more than 1000 nM with PC-3 cells.
